The test system of data set [1] is P. carinii. Nature of the data set: Immunosuppressed mice study, reduction of cysts (Table II). It counts as in vivo, C3 H/HeN mice. The conditions noted are these: 2 mg/kg intraperitoneally twice daily for one week. From the text: Male C3 H/HeN mice, weighing 22-24 grams each, were immunosuppressed by the addition of dexamethasone to the drinking water for six weeks to induce the development of P. carinii infections. To enhance the infections the mice were also maintained on a low protein diet. At the beginning of the seventh week, the mice were randomly divided into groups of 6. All groups continued to receive dexamethasone in the drinking water and low protein diet for the remainder of the study. Mice in each group were injected intraperitonially twice daily with 0.5 ml of a 10% DMSO solution as a vehicle control or the same cocktail containing drug to achieve a dose of 2 mg/kg. This procedure was continued for one week.
At the end of the treatment period (a total of seven weeks of immunosuppression) the animals were sacrificed and the lung tissue removed. The tissue was then processed to determine the number of cysts for each animal.

For data set [2], the system named is Pneumocystis carinii cysts. Put plainly: 4-day treatment experiments, minimum effective dose for 90 percent clearance of cysts (Table III). The conditions noted are these: minimum effective dose for 90 percent clearance of cysts, six animals per dose level. It counts as in vivo. As for the experimental part: When 4-day treatment experiments were carried out in a similar manner, but using different doses in order to determine the minimum effective dose for 90 percent clearance of Pneumocystis carinii cysts, the results shown on Table III were obtained (Six animals were used at each dose level.)

For data set [3], the system named is P. carinii. Put plainly: Prophylaxis study in immunosuppressed rats with latent P. carinii infections (Table IV). It counts as in vivo. How it is done:
In a study to test the effectiveness of these compounds as a potential prophylactic agent, rats with latent P. carinii infections were immunosuppressed with dexamethasone in drinking water to stimulate the development of acute PCP. During this immunosuppression period the animals were given daily subcutaneous injections of either 1 mg/kg of Compound IA or vehicle. After six weeks all animals were sacrificed. The number of cysts per lung was determined microscopically and the nuclei (trophozites)were quantitated using a specific DNA probe. From the following table (Table IV) it can be seen that the development of both cysts and trophozoite forms of P. carinii is prevented by daily treatments of Compound IA.

For data set [4], the system named is P. carinii. Put plainly: Long term (21 days) therapy study, rate of cyst clearance. The data set is classed as in vivo. As for the experimental part: Pentamadine was administered intravenously daily at a dose of 10 mg/kg, 2.5 times the recommended dose for man. Compound IA was given twice daily intraperitonealy at 1.0 mg/kg.
The test system of data set [5] is P. carinii. Put plainly: Repeat rat experiment with larger number of rats, cysts per lung. The data set is classed as in vivo. To be noted: five rats Compound IA, six rats TMP-SMZ; DMSO control 5.8×10^5 to 3.1×10^7; limit of resolution 2.8×10^3.
The next data set in a line: Solubility properties. The data set is classed as physicochemical. To be noted: methanol, ethanol, dimethylformamide, dimethyl sulfoxide, and the like.
Data set [6] relates to P. carinii. Put plainly: In vivo testing of Compound IA and TMP-SMZ against P. carinii in immunosuppressed rats (Table I). Also on record: species or system Sprague-Dawley rats. How it is done: In a representative study employing Compound IA in rats, nine male Sprague-Dawley rats from a colony known to have latent P. carinii infections, weighting approximately 200 grams each, were immunosupressed by the addition of dexamethasone to the drinking water (2.0 mg/liter) for six weeks to induce the development of P. carinii infections. To enhance the infection the rats were also maintained on a low protein diet. At the beginning of the seventh week the rats were divided into three groups of three rats each. All three groups continued to receive dexamethasone in the drinking water and low protein diet throughout the remainder of the study. The rats in Group I were kept as untreated infected controls, those in Group II were injected intraperitoneally twice daily for two weeks with 0.5 ml of sterile dH2 O containing 2 mg of Compound IA, and those in Group III were treated with trimethoprim-sulfamethoxazole (TMP-SMZ) in the drinking water (208 mg TMP and 1.040 g of SMZ/liter) for two weeks, a known treatment for P. carinii infections. Two rats died early in the experiment. One was from group II (rat 72A) and the other from group III (rat 75A). It was not determined whether they died from Pneumocystis pneumonia. At the end of the two week treatment period (a total of eight weeks of immunosuppression) the animals were sacrificed and the lung tissue removed. The lungs from each animal were weighed, and then processed to determine the number of cysts and parasite nuclei for each animal.

Data set [7] has as its system Pneumocystis carinii. Put plainly: Similar rat study, 7 days treatment, antipneumocystis activity of Compound IBii and Compound IA. The data set is classed as in vivo. The conditions noted are these: rats, 2 mg/kg injected twice daily for 7 days; vehicle 10% DMSO. As for the experimental part:
A similar rat study was conducted to determine the antipneumocystis activity of 1-[(4R,5R)-4,5-dihydroxy-N^2 -[4-(octyloxy)benzoyl]-L-iiornithine]echinocandin B (Compound IBii). After 6 weeks of immunosuppression the rats were injected twice daily for 7 days with vehicle alone, Compound IBii (2 mg/kg) or Compound IA (2 mg/kg) during which time immunosuppression was continued. At the end of the treatment period the animals were sacrificed and the number of cysts per lung determined. Compound IA reduced the number of cysts by >99% while Compound IBii reduced the cyst counts by approximately 84% (compared to the vehicle control, 10% DMSO).

Data set [8] relates to Pneumocystis carinii. Put plainly: Rat study of the 2-aminoethyl ether of tetrahydroechinocandin B, four days subcutaneous, four dose levels. The data set is classed as in vivo, Sprague-Dawley rats. To be noted: rats. How it is done: In still another study, the antipneumocystis activity of a compound in wherein R^I is OH, R^II is OH, R^III is --CH2 CH2 NH2, R^I is OH, R^V is CH3, R^V is CH3, R is [drawing 21] preparation and structure in Example G) was determined. In this study, Sprague-Dawley rats (weighing approximately 250 g) were immunosuppressed with dexasone in the drinking water (2.0 mg/L) and maintained on a regular protein diet for 7 weeks to induce the development of pneumocystis pneumonia from a latent infection. Before drug treatment 2 rats were sacrificed to confirm the presence of Pneumocystis carinii pneumonia (PCP), both rats had infections. The remaining rats (weighing approximately 150 g) were distributed into groups of 6 and injected twice daily for four days subcutaneously with compound in 0.25 ml of vehicle (10% DMSO). The control groups received vehicle alone. All animals continued to receive dexasone in the drinking water and regular diet during the drug treatment period. At the completion of treatment all animals were sacrificed, the lungs were removed and processed, and the extent of disease determined by microscopic analysis of stained slides.
Four dose levels of this compound were tested.

Setting [9] is: 1 mg/kg s.c. daily for six weeks, P ≤ 0.002.
Setting [10] is: individual rats, after two weeks treatment.
The mark [11] stands for this setting: individual rats, after two weeks: Compound IA 2 mg i.p. twice daily, or TMP-SMZ in drinking water.

Values joined by “and” are separate entries in the source; they are usually repeats but may differ in a detail not shown here. Identical values can stand only once. Numbered stars: 1 amine (or outer) side, 2 acyl side, 3 side chain; on linkers, the order of the positions; unused ones are H or OH. Bridge positions count the residues as written; N and C are the ends. Square brackets hold non-standard residues; d marks the D form. Peptide text beside a SMILES is read from it. * marks the point of attachment. ξ: configuration not given here. Orn(4R-OH,5R-OH) = O=C([C@H](C[C@@H](O)[C@@H](O)N[*:3])N[*:1])[*:2]; ξOrn(4R-OH,5R-OH) = O=C(C(C[C@@H](O)[C@@H](O)N[*:3])N[*:1])[*:2]; Tetradecanoyl(10R,12S-Me2) = CC[C@H](C)C[C@H](C)CCCCCCCCC(=O)*; hTyr(3S-OH,4S-OH) = N[C@H](C(=O)O)[C@H](O)[C@@H](O)c1ccc(O)cc1; ξhTyr(3S-OH,4S-OH) = NC(C(=O)O)[C@H](O)[C@@H](O)c1ccc(O)cc1; ξOrn(4,5-diOH) = O=C(C(CC(O)C(O)N[*:3])N[*:1])[*:2]; ξhTyr(βξ-OH,γξ-OH) = NC(C(=O)O)C(O)C(O)c1ccc(O)cc1; Pro(3S-OH,4S-Me) = C[C@H]1CN[C@H](C(=O)O)[C@H]1O; Benzoyl(4-octyloxy) = CCCCCCCCOc1ccc(C(=O)*)cc1; Gln(3R-OH) = NC(=O)C[C@@H](O)[C@H](N)C(=O)O; Linoleoyl = CCCCC/C=C\C/C=C\CCCCCCCC(=O)*; X1 = C[C@H]1CN([*:1])C(C(=O)[*:2])[C@H]1O; ξPro(3ξ-OH,4ξ-Me) = CC1CNC(C(=O)O)C1O; ξPro(4R-OH) = O=C(O)C1C[C@@H](O)CN1; Stearoyl = CCCCCCCCCCCCCCCCCC(=O)*; Hyp = O=C(O)[CH]1C[CH](O)CN1; ξT = CC(O)C(N)C(=O)O

In the case of `CCCCCCCCCCCCCCCCCC(=O)NC1CC(O)C(O)NC(=O)C2C(O)C(C)CN2C(=O)C(C(C)O)NC(=O)C(C(O)C(O)c2ccc(O)cc2)NC(=O)C2CC(O)CN2C(=O)C(C(C)O)NC1=O` (stereo not drawn) [Tetrahydroechinocandin B (TEB), tetrahydroechinocandin B] (Stearoyl-[ξOrn(4,5-diOH)]T[Hyp][ξhTyr(βξ-OH,γξ-OH)]T[ξPro(3ξ-OH,4ξ-Me)]; lactam 1-C; configuration not given here), the “% Reduction of Cysts” value with P. carinii [1] was 99%. In data set [2], this compound registered an ED90 of 0.2 mg/kg.
On to “O-methyltetrahydroechinocandin B [O-Methyl-TEB]”, for which, in the data set on P. carinii [1], the “% Reduction of Cysts” value is over 99%.
Take `CCCCC/C=C\C/C=C\CCCCCCCC(=O)N[C@H]1C[C@@H](O)[C@@H](O)NC(=O)[C@@H]2[C@@H](O)[C@@H](C)CN2C(=O)[C@H]([C@@H](C)O)NC(=O)[C@H]([C@H](O)[C@@H](O)c2ccc(O)cc2)NC(=O)[C@@H]2C[C@@H](O)CN2C(=O)[C@H]([C@@H](C)O)NC1=O` [Echinocandin B] (Linoleoyl-[Orn(4R-OH,5R-OH)]T[Hyp][hTyr(3S-OH,4S-OH)]T[Pro(3S-OH,4S-Me)]; lactam 1-C): the “% Reduction of Cysts” value in the data set with P. carinii [1] is listed as over 99%. The ED90 in data set [2] came out at 1.2 mg/kg.
For the compound `CC[C@H](C)C[C@H](C)CCCCCCCCC(=O)N[C@H]1C[C@@H](O)[C@@H](O)NC(=O)[C@@H]2[C@@H](O)[C@@H](C)CN2C(=O)[C@H]([C@H](O)CC(N)=O)NC(=O)[C@H]([C@H](O)[C@@H](O)c2ccc(O)cc2)NC(=O)[C@@H]2C[C@@H](O)CN2C(=O)[C@H]([C@@H](C)O)NC1=O` [Compound IA] ({Tetradecanoyl(10R,12S-Me2)}-[Orn(4R-OH,5R-OH)]T[Hyp][hTyr(3S-OH,4S-OH)][Gln(3R-OH)][Pro(3S-OH,4S-Me)]; lactam 1-C), in the data set on P. carinii [3] (1 mg/kg s.c. daily for six weeks during immunosuppression, detection limit 4.66, control 7.76 ± 0.10), the “Cysts Log Mean” value stood at 4.70 ± 0.04. Also, the “Nuclei Log Mean” value with P. carinii [3] (1 mg/kg s.c. daily for six weeks, DNA probe, detection limit 4.66, control 7.50 ± 0.15) stood at 4.85 ± 0.05. For the same compound, in the data set with P. carinii [3] (setting [9]), the “Cysts Reduction” value was over 99.9% and the “Nuclei Reduction” value is reported as 99.8%. The “Mean Lung Wt.” value with P. carinii [3] (1 mg/kg s.c. daily for six weeks, P ≤ 0.002 vs control) is 1.81 ± .10 gms. Moreover, the “Mean Body Wt.” value with P. carinii [3] (1 mg/kg s.c. daily for six weeks, control 147.1 ± 6.3) is reported as 142.0 ± 4.2 gms. For the same compound, the “extent of cyst clearance (reduction)” value with P. carinii [4] (Compound IA 1.0 mg/kg i.p. twice daily, compared with known agents at the two week time point) was “greater than 99%”. In addition, the “time to elimination of cysts” value with P. carinii [4] (Compound IA 1.0 mg/kg intraperitoneally twice daily) is given as at most 4 days. Also, in the data set with P. carinii [5], the “number of cysts per lung (range over rats)” value was 3.2×10^3 to 2.6×10^4. Also, the “solubility in organic solvents” value in the data set “Solubility properties” is reported as “soluble”. Moreover, the “% Reduction of Cysts” value in the data set with P. carinii [1] is on record as over 99%. For the same compound, in the data set on P. carinii [6] (setting [10]), the “CYST SCORE” value is 0; the “LUNG WT.” value is 2.83 gms and 1.40 gms. In the data set with P. carinii [6] (setting [11]), the “TOTAL NUCLEI per gm lung” value is 7.4 × 10^8 and 7.1 × 10^8; the “TOTAL NUCLEI per lung” value is 2.1 × 10^9 and 1.0 × 10^9. In addition, the “cysts in the lungs of treated rats” value with P. carinii [6] (two weeks treatment, controls 3.2×10^8 -1.5×10^9) was “No cysts could be found”. Also, the “number of parasite nuclei (range over treated rats)” value in the data set with P. carinii [6] (two weeks treatment, controls 5.8×10^9 -1.4×10^10) is on record as 1.0-2.1×10^9. Further, in the data set with Pneumocystis carinii [7], the “reduction of number of cysts per lung compared to vehicle control” value is over 99%. The ED90 in data set [2] is on record as 0.2 mg/kg.
On to “O-benzyltetrahydroechinocandin B [O-Benzyl-TEB]”, for which the “% Reduction of Cysts” value with P. carinii [1] came to 99%.
With “Tetrahydroechinocandin-B, 2-aminoethyl Ether, Trifluoroacetate Salt [Example G]”, the reduction of cysts was 96% in the data set with Pneumocystis carinii [8] (18.25 μg/kg s.c. twice daily for four days), 98% with Pneumocystis carinii [8] (37.5 μg/kg s.c. twice daily for four days), 99% in the data set with Pneumocystis carinii [8] (75 μg/kg s.c. twice daily for four days) and 99% in the data set on Pneumocystis carinii [8] (150 μg/kg s.c. twice daily for four days). The ED90 entry with Pneumocystis carinii [8] (s.c. twice daily for four days, cyst reduction) is listed as “below 18.25 μg/kg”; in [2], under 0.02 mg/kg.
On to `CCCCCCCCOc1ccc(C(=O)NC2C[C@@H](O)[C@@H](O)NC(=O)C3[C@@H](O)[C@@H](C)CN3C(=O)C(C(C)O)NC(=O)C([C@H](O)[C@@H](O)c3ccc(O)cc3)NC(=O)C3C[C@@H](O)CN3C(=O)C(C(C)O)NC2=O)cc1` (stereo partly drawn) [Compound IBii, 1-[(4R,5R)-4,5-dihydroxy-N^2-[4-(octyloxy)benzoyl]-L-ornithine]echinocandin B] ({Benzoyl(4-octyloxy)}-[ξOrn(4R-OH,5R-OH)][ξT][ξPro(4R-OH)][ξhTyr(3S-OH,4S-OH)][ξT][X1]; lactam 1-C), for which the “reduction of number of cysts per lung compared to vehicle control” value with Pneumocystis carinii [7] is given as “approximately 84%”. In data set [2], this compound showed an ED90 of 4.0 mg/kg.

The record behind these values is patent publication US5166135A, “Method for the control of pneumocystis carinii” (Merck & Company, Inc., priority 1991, dated 1992).
